Species: Rattus norvegicus
Test: DrugMatrix - Regimen: Daily Repeat
Format: toxicity, organism-based, Sprague-Dawley
Set-up: regimen Daily Repeat, gender Male, age 6-8 weeks
Settings: in vivo, po, route oral GAVAGE, vehicle 100 % WATER; for ABSOLUTE BASOPHIL / ABSOLUTE EOSINOPHIL / ABSOLUTE LYMPHOCYTE / ABSOLUTE MONOCYTE / ABSOLUTE SEGMENTED NEUTROPHIL / BASOPHIL / EOSINOPHIL / ERYTHROCYTE COUNT / HEMATOCRIT / HEMOGLOBIN / LEUKOCYTE COUNT / LYMPHOCYTE / MEAN CORPUSCULAR HEMOGLOBIN / MEAN CORPUSCULAR HEMOGLOBIN CONCENTRATION / MEAN CORPUSCULAR VOLUME / MONOCYTE / NEUTROPHIL / NUCLEATED RED BLOOD CELLS / PLATELET COUNT: tissue Blood; for ALANINE AMINOTRANSFERASE / ALBUMIN / ALKALINE PHOSPHATASE / ASPARTATE AMINOTRANSFERASE / BLOOD UREA NITROGEN / CARBON DIOXIDE / CHLORIDE / CHOLESTEROL / CREATINE PHOSPHOKINASE / CREATININE / GLUCOSE / LACTATE DEHYDROGENASE / LIPASE / PHOSPHORUS / POTASSIUM / SODIUM / TOTAL BILIRUBIN / TOTAL PROTEIN / URIC ACID: tissue Plasma
[1] = 0 mg/kg, 72 h, dose level Control, time 3 day
[2] = 0 mg/kg, 120 h, dose level Control, time 5 day
[3] = 100 mg/kg, 72 h, dose level High, time 3 day
[4] = 100 mg/kg, 120 h, dose level High, time 5 day

CN(C)CCOC(c1ccccc1)c1ccccc1 [DIPHENHYDRAMINE]
ABSOLUTE BASOPHIL [1]: 0 CELLS/uL
ABSOLUTE EOSINOPHIL [1]: 20.17 CELLS/uL
ABSOLUTE LYMPHOCYTE [1]: 12371.67 CELLS/uL
ABSOLUTE MONOCYTE [1]: 166 CELLS/uL
ABSOLUTE SEGMENTED NEUTROPHIL [1]: 1292.17 CELLS/uL
BASOPHIL [1]: 0%
EOSINOPHIL [1]: 0.17%
ERYTHROCYTE COUNT [1]: 5.46 x10E6/uL
HEMATOCRIT [1]: 34.38%
HEMOGLOBIN [1]: 13.32 G/DL
LEUKOCYTE COUNT [1]: 13.85 x10E3/uL
LYMPHOCYTE [1]: 88.5%
MEAN CORPUSCULAR HEMOGLOBIN [1]: 24.42 pg
MEAN CORPUSCULAR HEMOGLOBIN CONCENTRATION [1]: 38.7 G/DL
MEAN CORPUSCULAR VOLUME [1]: 63.07 fL
MONOCYTE [1]: 1.17%
NEUTROPHIL [1]: 10.17%
NUCLEATED RED BLOOD CELLS [1]: 0.17 /100WBC
PLATELET COUNT [1]: 1193.5 x10E3/uL
ALANINE AMINOTRANSFERASE [1]: 54.5 u/L
ALBUMIN [1]: 4.02 G/DL
ALKALINE PHOSPHATASE [1]: 346.5 u/L
ASPARTATE AMINOTRANSFERASE [1]: 103.17 u/L
BLOOD UREA NITROGEN [1]: 16.5 mg/dL
CARBON DIOXIDE [1]: 29.83 mmol/L
CHLORIDE [1]: 99.5 MEQ/L
CHOLESTEROL [1]: 72.5 mg/dL
CREATINE PHOSPHOKINASE [1]: 532.5 u/L
CREATININE [1]: 0.18 mg/dL
GLUCOSE [1]: 168.5 mg/dL
LACTATE DEHYDROGENASE [1]: 536.5 u/L
LIPASE [1]: 11.17 u/L
PHOSPHORUS [1]: 11.48 mg/dL
POTASSIUM [1]: 5.95 MEQ/L
SODIUM [1]: 140.5 MEQ/L
TOTAL BILIRUBIN [1]: 0.18 mg/dL
TOTAL PROTEIN [1]: 5.77 G/DL
URIC ACID [1]: 1.42 mg/dL
ABSOLUTE BASOPHIL [2]: 0 CELLS/uL
ABSOLUTE EOSINOPHIL [2]: 22.83 CELLS/uL
ABSOLUTE LYMPHOCYTE [2]: 12202.83 CELLS/uL
ABSOLUTE MONOCYTE [2]: 158 CELLS/uL
ABSOLUTE SEGMENTED NEUTROPHIL [2]: 1283 CELLS/uL
BASOPHIL [2]: 0%
EOSINOPHIL [2]: 0.17%
ERYTHROCYTE COUNT [2]: 5.88 x10E6/uL
HEMATOCRIT [2]: 36.62%
HEMOGLOBIN [2]: 14.07 G/DL
LEUKOCYTE COUNT [2]: 13.67 x10E3/uL
LYMPHOCYTE [2]: 89.5%
MEAN CORPUSCULAR HEMOGLOBIN [2]: 23.95 pg
MEAN CORPUSCULAR HEMOGLOBIN CONCENTRATION [2]: 38.43 G/DL
MEAN CORPUSCULAR VOLUME [2]: 62.28 fL
MONOCYTE [2]: 1.17%
NEUTROPHIL [2]: 9.17%
NUCLEATED RED BLOOD CELLS [2]: 0.17 /100WBC
PLATELET COUNT [2]: 1198 x10E3/uL
ALANINE AMINOTRANSFERASE [2]: 51 u/L
ALBUMIN [2]: 4.3 G/DL
ALKALINE PHOSPHATASE [2]: 343 u/L
ASPARTATE AMINOTRANSFERASE [2]: 89.83 u/L
BLOOD UREA NITROGEN [2]: 17.67 mg/dL
CARBON DIOXIDE [2]: 27.17 mmol/L
CHLORIDE [2]: 98.33 MEQ/L
CHOLESTEROL [2]: 82.5 mg/dL
CREATINE PHOSPHOKINASE [2]: 533.33 u/L
CREATININE [2]: 0.18 mg/dL
GLUCOSE [2]: 152.67 mg/dL
LACTATE DEHYDROGENASE [2]: 220.33 u/L
LIPASE [2]: 11.5 u/L
PHOSPHORUS [2]: 11.25 mg/dL
POTASSIUM [2]: 6.29 MEQ/L
SODIUM [2]: 140.53 MEQ/L
TOTAL BILIRUBIN [2]: 0.22 mg/dL
TOTAL PROTEIN [2]: 6.12 G/DL
URIC ACID [2]: 1.42 mg/dL
ABSOLUTE BASOPHIL [3]: 0 CELLS/uL
ABSOLUTE EOSINOPHIL [3]: 48.67 CELLS/uL
ABSOLUTE LYMPHOCYTE [3]: 13023.67 CELLS/uL
ABSOLUTE MONOCYTE [3]: 77 CELLS/uL
ABSOLUTE SEGMENTED NEUTROPHIL [3]: 750.67 CELLS/uL
BASOPHIL [3]: 0%
EOSINOPHIL [3]: 0.33%
ERYTHROCYTE COUNT [3]: 5.83 x10E6/uL
HEMATOCRIT [3]: 36.17%
HEMOGLOBIN [3]: 14.33 G/DL
LEUKOCYTE COUNT [3]: 13.9 x10E3/uL
LYMPHOCYTE [3]: 93.67%
MEAN CORPUSCULAR HEMOGLOBIN [3]: 24.6 pg
MEAN CORPUSCULAR HEMOGLOBIN CONCENTRATION [3]: 39.67 G/DL
MEAN CORPUSCULAR VOLUME [3]: 62.07 fL
MONOCYTE [3]: 0.67%
NEUTROPHIL [3]: 5.33%
NUCLEATED RED BLOOD CELLS [3]: 0 /100WBC
PLATELET COUNT [3]: 1203 x10E3/uL
ALANINE AMINOTRANSFERASE [3]: 46.67 u/L
ALBUMIN [3]: 4 G/DL
ALKALINE PHOSPHATASE [3]: 345.33 u/L
ASPARTATE AMINOTRANSFERASE [3]: 88.67 u/L
BLOOD UREA NITROGEN [3]: 16.67 mg/dL
CARBON DIOXIDE [3]: 30.33 mmol/L
CHLORIDE [3]: 100.33 MEQ/L
CHOLESTEROL [3]: 78 mg/dL
CREATINE PHOSPHOKINASE [3]: 422.33 u/L
CREATININE [3]: 0.14 mg/dL
GLUCOSE [3]: 146 mg/dL
LACTATE DEHYDROGENASE [3]: 334.67 u/L
LIPASE [3]: 11.67 u/L
PHOSPHORUS [3]: 12.1 mg/dL
POTASSIUM [3]: 6.05 MEQ/L
SODIUM [3]: 141 MEQ/L
TOTAL BILIRUBIN [3]: 0.17 mg/dL
TOTAL PROTEIN [3]: 5.67 G/DL
URIC ACID [3]: 1.3 mg/dL
ABSOLUTE BASOPHIL [4]: 0 CELLS/uL
ABSOLUTE EOSINOPHIL [4]: 0 CELLS/uL
ABSOLUTE LYMPHOCYTE [4]: 12726.67 CELLS/uL
ABSOLUTE MONOCYTE [4]: 228 CELLS/uL
ABSOLUTE SEGMENTED NEUTROPHIL [4]: 1012 CELLS/uL
BASOPHIL [4]: 0%
EOSINOPHIL [4]: 0%
ERYTHROCYTE COUNT [4]: 5.75 x10E6/uL
HEMATOCRIT [4]: 34.8%
HEMOGLOBIN [4]: 13.73 G/DL
LEUKOCYTE COUNT [4]: 13.97 x10E3/uL
LYMPHOCYTE [4]: 91.33%
MEAN CORPUSCULAR HEMOGLOBIN [4]: 23.9 pg
MEAN CORPUSCULAR HEMOGLOBIN CONCENTRATION [4]: 39.47 G/DL
MEAN CORPUSCULAR VOLUME [4]: 60.53 fL
MONOCYTE [4]: 1.67%
NEUTROPHIL [4]: 7%
NUCLEATED RED BLOOD CELLS [4]: 0 /100WBC
PLATELET COUNT [4]: 1281 x10E3/uL
ALANINE AMINOTRANSFERASE [4]: 54.33 u/L
ALBUMIN [4]: 3.93 G/DL
ALKALINE PHOSPHATASE [4]: 386 u/L
ASPARTATE AMINOTRANSFERASE [4]: 79.33 u/L
BLOOD UREA NITROGEN [4]: 16.67 mg/dL
CARBON DIOXIDE [4]: 25.67 mmol/L
CHLORIDE [4]: 99 MEQ/L
CHOLESTEROL [4]: 60 mg/dL
CREATINE PHOSPHOKINASE [4]: 323.33 u/L
CREATININE [4]: 0.11 mg/dL
GLUCOSE [4]: 154.67 mg/dL
LACTATE DEHYDROGENASE [4]: 155.33 u/L
LIPASE [4]: 11.33 u/L
PHOSPHORUS [4]: 11.47 mg/dL
POTASSIUM [4]: 6.2 MEQ/L
SODIUM [4]: 141.53 MEQ/L
TOTAL BILIRUBIN [4]: 0.2 mg/dL
TOTAL PROTEIN [4]: 5.5 G/DL
URIC ACID [4]: 1.97 mg/dL

Source: ChEMBL document CHEMBL3885881, “DrugMatrix”
